Experimental data: ChEMBL document CHEMBL1140928, “Glycolipids and benzylammonium lipids as novel antisepsis agents: synthesis and biological characterization” (J Med Chem, 2009)
Blank lines part the entries; values can stand above or below the molecule they belong to. The source made the active and inactive calls. The rule behind the calls is not given here.

Experiments:
[1] = biological target: Intestinal-type alkaline phosphatase (Bos taurus) (UniProt P19111); experiment: Inhibition of calf recombinant intestinal alkaline phosphatase at 10 uM
Intestinal-type alkaline phosphatase (Bos taurus), sequence (P19111 20-506 limits assumed): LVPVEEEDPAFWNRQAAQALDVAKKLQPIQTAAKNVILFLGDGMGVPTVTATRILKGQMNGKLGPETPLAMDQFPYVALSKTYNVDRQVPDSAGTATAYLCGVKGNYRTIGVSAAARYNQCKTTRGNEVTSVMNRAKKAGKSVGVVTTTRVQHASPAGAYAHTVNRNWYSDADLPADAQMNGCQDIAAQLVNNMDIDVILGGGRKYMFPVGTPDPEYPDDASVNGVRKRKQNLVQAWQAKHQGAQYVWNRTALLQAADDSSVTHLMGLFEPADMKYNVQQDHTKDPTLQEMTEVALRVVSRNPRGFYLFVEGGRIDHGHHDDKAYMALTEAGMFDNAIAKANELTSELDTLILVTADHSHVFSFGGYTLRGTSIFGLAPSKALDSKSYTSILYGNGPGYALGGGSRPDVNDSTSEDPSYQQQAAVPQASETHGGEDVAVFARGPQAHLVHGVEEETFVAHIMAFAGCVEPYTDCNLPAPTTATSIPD

[2] = biological target: Intestinal-type alkaline phosphatase (Homo sapiens) (UniProt P09923); experiment: Inhibition of intestinal alkaline phosphatase in lipid A-stimulated HEK-Blue-4 cells at 10 uM
Intestinal-type alkaline phosphatase (Homo sapiens), sequence (P09923 20-503 limits assumed): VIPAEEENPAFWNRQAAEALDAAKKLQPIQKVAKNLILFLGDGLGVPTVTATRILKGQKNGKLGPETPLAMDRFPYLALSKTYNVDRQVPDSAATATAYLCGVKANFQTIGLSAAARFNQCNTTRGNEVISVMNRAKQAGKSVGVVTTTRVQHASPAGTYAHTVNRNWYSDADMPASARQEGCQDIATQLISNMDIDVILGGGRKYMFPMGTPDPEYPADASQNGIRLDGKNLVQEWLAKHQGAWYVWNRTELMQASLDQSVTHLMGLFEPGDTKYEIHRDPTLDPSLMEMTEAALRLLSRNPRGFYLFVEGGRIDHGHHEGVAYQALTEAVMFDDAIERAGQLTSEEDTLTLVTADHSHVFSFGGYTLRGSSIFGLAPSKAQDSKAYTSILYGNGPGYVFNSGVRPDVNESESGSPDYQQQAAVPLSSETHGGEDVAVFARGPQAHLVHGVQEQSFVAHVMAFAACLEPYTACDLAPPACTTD

[3] = Inhibition of lipid A-mediated TLR4 activation in HEK-Blue-4 cells assessed as inhibition of alkaline phosphatase activity by spectrophotometry; assay type: cell-based
Mus musculus [4] = experiment: Antisepsis activity in LPS-induced C57BL/6J mouse lethal endotoxin shock model assessed as survival after 4 days at 10 mg/kg, ip administered 30 before LPS challenge; assay type: functional; settings: for survival at 10 mg/kg: 96 h, route intraperitoneal
[5] = Inhibition of lipid A-induced TLR4 activation in HEK-Blue-4 cells assessed as inhibition of alkaline phosphatase activity at 10 uM by spectrophotometry; assay type: cell-based
Mus musculus [6] = experiment: Antisepsis activity in LPS-induced C57BL/6J mouse lethal endotoxin shock model assessed as survival after 4 days at 3 mg/kg, ip administered 30 before LPS challenge; assay type: functional; settings: 96 h, route intraperitoneal
[7] = Cytotoxicity against HEK-Blue-4 cells assessed as effect on cell viability by Cell-Titre Blue assay; assay type: cell-based; settings: human
Homo sapiens = organism: Homo sapiens; experiment: Inhibition of TNF-alpha-induced alkaline phosphatase activity in HEK-Blue-4 cells at 10 uM by spectrophotometry; assay type: functional, cell-based
Mus musculus [8] = experiment: Antisepsis activity in LPS-induced ip dosed C57BL/6J mouse lethal endotoxin shock model assessed as survival after 4 days administered 30 before LPS challenge; assay type: functional
[9] = Cytotoxicity against HEK-Blue-4 cells assessed as diminution of cell viability by Cell-Titre Blue assay; assay type: cell-based; settings: human

SMILES: CCCCCCCCCCCCCCO[C@H]1[C@@H](OC)O[C@H](CN)[C@@H](O)[C@@H]1OCCCCCCCCCCCCCC
Activity [1]: inactive
Activity [2]: inactive
IC50 [3]: 5.49 µM
Activity (Mus musculus [4]): Active
Activity [5]: Dose-dependent effect
survival at 3 mg/kg (Mus musculus [6]): 100%
Activity [7]: Non-toxic
Activity (Homo sapiens): inactive

SMILES: CCCCCCCCCCCCCCO[C@H]1[C@@H](OC)O[C@H](C[N+](C)(C)C2CCCC2)[C@@H](O)[C@@H]1OCCCCCCCCCCCCCC.[I-]
Activity [1]: inactive
Activity [2]: inactive
IC50 [3]: 5.01 µM
survival at 10 mg/kg (Mus musculus [4]): 25%
Activity [5]: Dose-dependent effect
Activity [7]: Non-toxic
Activity (Homo sapiens): inactive

SMILES: CCOC(=O)C1=CCCC[C@H]1S(=O)(=O)Nc1ccc(F)cc1Cl [RESATORVID]
ED50 (Mus musculus [8]; 96 h): 0.3 mg/kg

IC50 [3]: > 10 µM
SMILES: CCCCCCCCCCCCCCO[C@H]1[C@@H](OC)O[C@H](COC2CCCC2)[C@@H](O)[C@@H]1OCCCCCCCCCCCCCC

Activity [1]: inactive
IC50 [3]: 5.87 µM
SMILES: CCCCCCCCCCCCCCO[C@H]1[C@@H](OC)O[C@H](CNC(=O)C2CCCN2)[C@@H](O)[C@@H]1OCCCCCCCCCCCCCC (some centres not stated)
Activity [5]: Dose-dependent effect
Activity [7]: Non-toxic

SMILES: CCCCCCCCCCCCCCOc1ccc(C[N+](C)(C)C2CCCC2)cc1OCCCCCCCCCCCCCC.[I-]
Activity [1]: inactive
Activity [2]: inactive
IC50 [3]: 1.68 µM
survival at 10 mg/kg (Mus musculus [4]): 67%
Activity [5]: Dose-dependent effect
Activity [9]: 13%
Activity (Homo sapiens): inactive

IC50 [3]: > 10 µM
SMILES: CCCCCCCCCCCCCCO[C@H]1[C@@H](OC)O[C@H](CNOC)[C@@H](O)[C@@H]1OCCCCCCCCCCCCCC

SMILES: CCCCCCCCCCCCCCO[C@H]1[C@@H](OC)O[C@H](CNC2CCCC2)[C@@H](O)[C@@H]1OCCCCCCCCCCCCCC
IC50 [3]: > 10 µM
Activity (Mus musculus [8]): inactive
inhibition [5]: 23%
